Measurements taken from ChEMBL document CHEMBL1629655, “Affinity of Tomopenem (CS-023) for penicillin-binding proteins in Staphylococcus aureus, Escherichia coli, and Pseudomonas aeruginosa” (Antimicrob Agents Chemother, 2009).
≈ marks a conversion by molar mass, not a printed value.

Legend:
Escherichia coli [1] = assay: Ratio of MIC for Escherichia coli EMR2a to MIC for Escherichia coli NIHJ; format: functional
Staphylococcus aureus [2] = assay: Antibacterial activity against Staphylococcus aureus SRR2a selected at 2 times MIC of tomopenem by microdilution method; format: functional
Escherichia coli [3] = assay: Ratio of MIC for Escherichia coli EIR4b to MIC for Escherichia coli NIHJ; format: functional
Escherichia coli [4] = assay: Ratio of MIC for Escherichia coli ERR2b to MIC for Escherichia coli NIHJ; format: functional
[5] = Displacement of [14C]benzylpenicillin from PBP2 Staphylococcus aureus ATCC 6538P
Escherichia coli [6] = assay: Antibacterial activity against Escherichia coli EIR2a selected at 2 times MIC of imipenem by microdilution method; format: functional
[7] = Displacement of [14C]benzylpenicillin from PBP1A in Pseudomonas aeruginosa ATCC 15692
Pseudomonas aeruginosa [8] = assay: Ratio of MIC for Pseudomonas aeruginosa PRR4a to MIC for Pseudomonas aeruginosa ATCC 15692; format: functional
[9] = Displacement of [14C]benzylpenicillin from PBP1B in Escherichia coli NIHJ
Escherichia coli [10] = assay: Antibacterial activity against Escherichia coli EIR8a selected at 8 times MIC of imipenem by microdilution method; format: functional
Escherichia coli [11] = assay: Antibacterial activity against Escherichia coli ERR8a selected at 8 times MIC of tomopenem by microdilution method; format: functional
Staphylococcus aureus [12] = assay: Ratio of MIC for Staphylococcus aureus SMR2a to MIC for Staphylococcus aureus ATCC 6538P; format: functional
[13] = Displacement of [14C]benzylpenicillin from PBP 5 in Pseudomonas aeruginosa ATCC 15692
Staphylococcus aureus [14] = assay: Antibacterial activity against Staphylococcus aureus SIR2a selected at 2 times MIC of imipenem by microdilution method; format: functional
Pseudomonas aeruginosa [15] = assay: Antibacterial activity against Pseudomonas aeruginosa PRR4a selected at 4 times MIC of tomopenem by microdilution method; format: functional
Escherichia coli [16] = assay: Ratio of MIC for Escherichia coli ERR4a to MIC for Escherichia coli NIHJ; format: functional
Escherichia coli [17] = assay: Ratio of MIC for Escherichia coli EIR2b to MIC for Escherichia coli NIHJ; format: functional
Escherichia coli [18] = assay: Ratio of MIC for Escherichia coli ERR2a selected to MIC for Escherichia coli NIHJ; format: functional
[19] = Displacement of [14C]benzylpenicillin from PBP3 in Staphylococcus aureus ATCC 6538P
[20] = Displacement of [14C]benzylpenicillin from PBP3 in Escherichia coli NIHJ
Escherichia coli [21] = assay: Antibacterial activity against Escherichia coli EMR2a selected at 2 times MIC of meropenem by microdilution method; format: functional
Escherichia coli [22] = assay: Ratio of MIC for Escherichia coli EIR2a to MIC for Escherichia coli NIHJ; format: functional
[23] = Displacement of [14C]benzylpenicillin from PBP2 in Escherichia coli NIHJ
[24] = Displacement of [14C]benzylpenicillin from PBP4 in Pseudomonas aeruginosa ATCC 15692
Escherichia coli [25] = assay: Antibacterial activity against Escherichia coli NIHJ by microdilution method; format: functional, organism-based
Pseudomonas aeruginosa [26] = assay: Antibacterial activity against Pseudomonas aeruginosa PIR2a selected at 2 times MIC of imipenem by microdilution method; format: functional
[27] = Displacement of [14C]benzylpenicillin from PBP 6 in Pseudomonas aeruginosa ATCC 15692
Escherichia coli [28] = assay: Ratio of MIC for Escherichia coli EIR8a to MIC for Escherichia coli NIHJ; format: functional
Escherichia coli [29] = assay: Antibacterial activity against Escherichia coli EIR4a selected at 4 times MIC of imipenem by microdilution method; format: functional
Pseudomonas aeruginosa [30] = assay: Antibacterial activity against Pseudomonas aeruginosa ATCC 15692 by microdilution method; format: functional, organism-based
[31] = Displacement of [14C]benzylpenicillin from PBP6 Escherichia coli NIHJ
Staphylococcus aureus [32] = assay: Antibacterial activity against Staphylococcus aureus SMR2a selected at 2 times MIC of meropenem by microdilution method; format: functional
Staphylococcus aureus [33] = assay: Ratio of MIC for Staphylococcus aureus SRR2a to MIC for Staphylococcus aureus ATCC 6538P; format: functional
Pseudomonas aeruginosa [34] = assay: Antibacterial activity against Pseudomonas aeruginosa PMR2a selected at 2 times MIC of meropenem by microdilution method; format: functional
[35] = Displacement of [14C]benzylpenicillin from PBP1A in Escherichia coli NIHJ
[36] = Displacement of [14C]benzylpenicillin from PBP4 in Staphylococcus aureus ATCC 6538P
[37] = Displacement of [14C]benzylpenicillin from PBP5 in Escherichia coli NIHJ
[38] = Displacement of [14C]benzylpenicillin from PBP1B in Pseudomonas aeruginosa ATCC 15692
Escherichia coli [39] = assay: Antibacterial activity against Escherichia coli EIR4b selected at 4 times MIC of imipenem by microdilution method; format: functional
Staphylococcus aureus [40] = assay: Ratio of MIC for Staphylococcus aureus SIR2a selected at 2 times MIC of imipenem to MIC for Staphylococcus aureus ATCC 6538P; format: functional
Escherichia coli [41] = assay: Antibacterial activity against Escherichia coli ERR4a selected at 4 times MIC of tomopenem by microdilution method; format: functional
[42] = Displacement of [14C]benzylpenicillin from PBP3 in Pseudomonas aeruginosa ATCC 15692
Staphylococcus aureus [43] = assay: Ratio of MIC for Staphylococcus aureus SMR4a to MIC for Staphylococcus aureus ATCC 6538P; format: functional
Staphylococcus aureus [44] = assay: Antibacterial activity against Staphylococcus aureus ATCC 6538P by microdilution method; format: functional, organism-based
[45] = Displacement of [14C]benzylpenicillin from PBP1 in Staphylococcus aureus ATCC 6538P
Escherichia coli [46] = assay: Ratio of MIC for Escherichia coli ERR8a to MIC for Escherichia coli NIHJ; format: functional
Escherichia coli [47] = assay: Antibacterial activity against Escherichia coli ERR2b selected at 2 times MIC of tomopenem by microdilution method; format: functional
Escherichia coli [48] = assay: Antibacterial activity against Escherichia coli ERR2a selected at 2 times MIC of tomopenem by microdilution method; format: functional
Pseudomonas aeruginosa [49] = assay: Ratio of MIC for Pseudomonas aeruginosa PMR2a to MIC for Pseudomonas aeruginosa ATCC 15692; format: functional
[50] = Displacement of [14C]benzylpenicillin from PBP2 in Pseudomonas aeruginosa ATCC 15692
Pseudomonas aeruginosa [51] = assay: Ratio of MIC for Pseudomonas aeruginosa PIR2a to MIC for Pseudomonas aeruginosa ATCC 15692; format: functional
Escherichia coli [52] = assay: Antibacterial activity against Escherichia coli EIR2b selected at 2 times MIC of imipenem by microdilution method; format: functional
Escherichia coli [53] = assay: Ratio of MIC for Escherichia coli EIR4a to MIC for Escherichia coli NIHJ; format: functional
[54] = Displacement of [14C]benzylpenicillin from PBP4 in Escherichia coli NIHJ
Staphylococcus aureus [55] = assay: Antibacterial activity against Staphylococcus aureus SMR4a […] MIC of meropenem by microdilution method; format: functional

## C[C@@H](O)[C@H]1C(=O)N2C(C(=O)O)=C(SCCNC=N)C[C@H]12 [IMIPENEM ANHYDROUS]
Escherichia coli [1]
  Ratio MIC: 4
Staphylococcus aureus [2]
  MIC: 0.03 µg/mL
Escherichia coli [3]
  Ratio MIC: 4
Escherichia coli [4]
  Ratio MIC: 4
[5]
  IC50: 0.047 µg/mL (≈ 0.157 µM)
Escherichia coli [6]
  MIC: 1 µg/mL
[7]
  IC50: 0.057 µg/mL (≈ 0.19 µM)
Pseudomonas aeruginosa [8]
  Ratio MIC: 8
[9]
  IC50: 1.1 µg/mL (≈ 3.67 µM)
Escherichia coli [10]
  MIC: 0.5 µg/mL
Escherichia coli [11]
  MIC: 0.5 µg/mL
Staphylococcus aureus [12]
  Ratio MIC: 4
[13]
  IC50: 0.19 µg/mL (≈ 0.635 µM)
Staphylococcus aureus [14]
  MIC: 0.03 µg/mL
Pseudomonas aeruginosa [15]
  MIC: 8 µg/mL
Escherichia coli [16]
  Ratio MIC: 4
Escherichia coli [17]
  Ratio MIC: 2
Escherichia coli [18]
  Ratio MIC: 4
[19]
  IC50: 0.049 µg/mL (≈ 0.164 µM)
[20]
  IC50: 19 µg/mL (≈ 63.5 µM)
Escherichia coli [21]
  MIC: 1 µg/mL
Escherichia coli [22]
  Ratio MIC: 4
[23]
  IC50: 0.045 µg/mL (≈ 0.15 µM)
[24]
  IC50: 0.0032 µg/mL (≈ 0.0107 µM)
Escherichia coli [25]
  MBC: 0.25 µg/mL (≈ 0.835 µM)
  MIC: 0.25 µg/mL (≈ 0.835 µM)
Pseudomonas aeruginosa [26]
  MIC: 16 µg/mL
[27]
  IC50: 0.19 µg/mL (≈ 0.635 µM)
Escherichia coli [28]
  Ratio MIC: 2
Escherichia coli [29]
  MIC: 1 µg/mL
Pseudomonas aeruginosa [30]
  MBC: 2 µg/mL (≈ 6.68 µM)
  MIC: 1 µg/mL (≈ 3.34 µM)
[31]
  IC50: 1 µg/mL (≈ 3.34 µM)
Staphylococcus aureus [32]
  MIC: 0.03 µg/mL
Staphylococcus aureus [33]
  Ratio MIC: 4
Pseudomonas aeruginosa [34]
  MIC: 16 µg/mL
[35]
  IC50: 0.22 µg/mL (≈ 0.735 µM)
[36]
  IC50: 0.0078 µg/mL (≈ 0.0261 µM)
[37]
  IC50: 0.34 µg/mL (≈ 1.14 µM)
[38]
  IC50: 0.078 µg/mL (≈ 0.261 µM)
Escherichia coli [39]
  MIC: 1 µg/mL
Staphylococcus aureus [40]
  Ratio MIC: 4
Escherichia coli [41]
  MIC: 1 µg/mL
[42]
  IC50: 0.089 µg/mL (≈ 0.297 µM)
Staphylococcus aureus [43]
  ratio: 4
Staphylococcus aureus [44]
  IC50: 0.008 µg/mL (≈ 0.0267 µM)
  MBC: 0.008 µg/mL (≈ 0.0267 µM)
  MIC: 0.008 µg/mL (≈ 0.0267 µM)
[45]
  IC50: 0.024 µg/mL (≈ 0.0802 µM)
Escherichia coli [46]
  Ratio MIC: 2
Escherichia coli [47]
  MIC: 1 µg/mL
Escherichia coli [48]
  MIC: 1 µg/mL
Pseudomonas aeruginosa [49]
  Ratio MIC: 16
[50]
  IC50: 0.066 µg/mL (≈ 0.22 µM)
Pseudomonas aeruginosa [51]
  Ratio MIC: 16
Escherichia coli [52]
  MIC: 0.5 µg/mL
Escherichia coli [53]
  Ratio MIC: 4
[54]
  IC50: 0.44 µg/mL (≈ 1.47 µM)
Staphylococcus aureus [55]
  MIC: 0.03 µg/mL

## C[C@H]1COc2c(N3CCN(C)CC3)c(F)cc3c(=O)c(C(=O)O)cn1c23.C[C@H]1COc2c(N3CCN(C)CC3)c(F)cc3c(=O)c(C(=O)O)cn1c23.O [LEVOFLOXACIN]
Staphylococcus aureus [2]
  MIC: 0.12 µg/mL
Escherichia coli [4]
  Ratio MIC: 2
Staphylococcus aureus [12]
  Ratio MIC: 2
Staphylococcus aureus [14]
  MIC: 0.06 µg/mL
Pseudomonas aeruginosa [26]
  MIC: 0.5 µg/mL
Staphylococcus aureus [32]
  MIC: 0.12 µg/mL
Staphylococcus aureus [33]
  Ratio MIC: 2
Staphylococcus aureus [40]
  Ratio MIC: 1
Staphylococcus aureus [43]
  ratio: 1
Staphylococcus aureus [55]
  MIC: 0.06 µg/mL
